Test results: ChEMBL document CHEMBL3621176, “Inhibitors of the Renal Outer Medullary Potassium Channel” (ACS Med Chem Lett, 2015)

Target: T1, ATP-sensitive inward rectifier potassium channel 1 (Homo sapiens, UniProt P48048)
T1 sequence (P48048 whole entry): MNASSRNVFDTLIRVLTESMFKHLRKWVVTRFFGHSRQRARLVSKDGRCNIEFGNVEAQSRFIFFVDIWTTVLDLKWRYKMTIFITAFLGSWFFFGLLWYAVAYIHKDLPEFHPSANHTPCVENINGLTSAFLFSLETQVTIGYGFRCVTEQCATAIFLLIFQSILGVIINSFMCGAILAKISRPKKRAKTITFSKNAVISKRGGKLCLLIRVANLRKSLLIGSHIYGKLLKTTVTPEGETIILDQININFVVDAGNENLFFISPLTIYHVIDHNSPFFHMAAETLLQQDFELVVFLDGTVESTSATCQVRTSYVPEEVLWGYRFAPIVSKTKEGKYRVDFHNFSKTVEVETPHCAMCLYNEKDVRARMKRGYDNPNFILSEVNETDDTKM
Assay: Inhibition of human Kir1.1 expressed in HEK293 cells by thallium flux assay
Format: cell-based

Row | Structure (SMILES) | IC50 [µM]
1 | Cc1nc(N2CCC3(CCN(C[C@H](O)c4ccc5c(c4C)COC5=O)CC3)C2)ccc1C#N | 0.014
2 | Cc1cc(N2CCC3(CCN(C[C@H](O)c4ccc5c(c4C)COC5=O)CC3)C2)ncc1C#N | 0.017
3 | Cc1c([C@@H](O)CN2CCC3(CC2)CCN(c2ccc(C#N)nn2)CC3)ccc2c1COC2=O | 0.013

More lines, in order of falling IC50, values ahead:

Row | IC50 [µM] | Structure (SMILES)
4 | 0.02 | Cc1cc(C#N)cnc1N1CCC2(CCN(C[C@H](O)c3ccc4c(c3C)COC4=O)CC2)C1
5 | 0.015 | Cc1c([C@@H](O)CN2CCC3(CC2)CCN(c2ccc(C#N)cc2)C3)ccc2c1COC2=O
6 | 0.014 | Cc1c([C@@H](O)CN2CCC3(CC2)CCN(c2ncc(C#N)cn2)CC3)ccc2c1COC2=O
7 | 0.014 | Cc1c([C@@H](N)CN2CCC3(CC2)CC(=O)N(c2ccc(C#N)cn2)C3)ccc2c1COC2=O
8 | 0.009 | Cc1c([C@@H](O)CN2CCC3(CC2)CCN(c2cnc(C#N)cn2)CC3)ccc2c1COC2=O
